Test results from ChEMBL document CHEMBL4715866, “A Chemical Probe for Dark Kinase STK17B Derives Its Potency and High Selectivity through a Unique P-Loop Conformation” (J Med Chem, 2020).
Converted amounts (≈) assume the structure as drawn.

How the values were obtained:
[1] = target: T1, Serine/threonine-protein kinase 17B (Homo sapiens, UniProt O94768); test: Binding affinity to N-terminal His-tagged STK17B kinase domain (25 to 329 residues) (unknown origin) expressed in Escherichia coli by KINOMEscan scanMAX assay
T1 sequence (O94768 whole entry): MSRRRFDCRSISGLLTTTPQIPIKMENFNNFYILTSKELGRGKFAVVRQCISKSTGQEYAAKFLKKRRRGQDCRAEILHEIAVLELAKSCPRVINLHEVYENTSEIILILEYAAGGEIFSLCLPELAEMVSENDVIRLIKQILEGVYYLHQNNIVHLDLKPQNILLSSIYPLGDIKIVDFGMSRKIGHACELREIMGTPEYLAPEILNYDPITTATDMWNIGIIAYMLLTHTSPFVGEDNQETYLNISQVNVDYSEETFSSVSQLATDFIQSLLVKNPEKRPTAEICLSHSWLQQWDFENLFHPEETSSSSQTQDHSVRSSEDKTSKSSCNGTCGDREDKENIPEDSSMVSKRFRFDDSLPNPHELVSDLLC

[2] = target: T1, Serine/threonine-protein kinase 17B; test: Inhibition of N-terminal His-tagged STK17B kinase domain (25 to 329 residues) (unknown origin) expressed in Escherichia coli incubated for 90 mins by Kinase seeker split luciferase assay
[3] = Stability in mouse liver microsomes assessed as compound remaining at 0.1 mM in presence of NADPH regeneration system after 30 mins by LC-MS/MS analysis; type: ADME, Microsome; conditions: read-out: Stabilty
[4] = Kinetic solubility in pH 7.4 PBS; type: physicochemical; conditions: read-out: Kinetic_solubility
[5] = target: T2, Hepatocyte growth factor receptor (Homo sapiens, UniProt P08581); test: Binding affinity to human MET assessed as displacement of immobilized ligand by KINOMEscan scanMAX assay relative to control
T2 sequence (P08581 whole entry): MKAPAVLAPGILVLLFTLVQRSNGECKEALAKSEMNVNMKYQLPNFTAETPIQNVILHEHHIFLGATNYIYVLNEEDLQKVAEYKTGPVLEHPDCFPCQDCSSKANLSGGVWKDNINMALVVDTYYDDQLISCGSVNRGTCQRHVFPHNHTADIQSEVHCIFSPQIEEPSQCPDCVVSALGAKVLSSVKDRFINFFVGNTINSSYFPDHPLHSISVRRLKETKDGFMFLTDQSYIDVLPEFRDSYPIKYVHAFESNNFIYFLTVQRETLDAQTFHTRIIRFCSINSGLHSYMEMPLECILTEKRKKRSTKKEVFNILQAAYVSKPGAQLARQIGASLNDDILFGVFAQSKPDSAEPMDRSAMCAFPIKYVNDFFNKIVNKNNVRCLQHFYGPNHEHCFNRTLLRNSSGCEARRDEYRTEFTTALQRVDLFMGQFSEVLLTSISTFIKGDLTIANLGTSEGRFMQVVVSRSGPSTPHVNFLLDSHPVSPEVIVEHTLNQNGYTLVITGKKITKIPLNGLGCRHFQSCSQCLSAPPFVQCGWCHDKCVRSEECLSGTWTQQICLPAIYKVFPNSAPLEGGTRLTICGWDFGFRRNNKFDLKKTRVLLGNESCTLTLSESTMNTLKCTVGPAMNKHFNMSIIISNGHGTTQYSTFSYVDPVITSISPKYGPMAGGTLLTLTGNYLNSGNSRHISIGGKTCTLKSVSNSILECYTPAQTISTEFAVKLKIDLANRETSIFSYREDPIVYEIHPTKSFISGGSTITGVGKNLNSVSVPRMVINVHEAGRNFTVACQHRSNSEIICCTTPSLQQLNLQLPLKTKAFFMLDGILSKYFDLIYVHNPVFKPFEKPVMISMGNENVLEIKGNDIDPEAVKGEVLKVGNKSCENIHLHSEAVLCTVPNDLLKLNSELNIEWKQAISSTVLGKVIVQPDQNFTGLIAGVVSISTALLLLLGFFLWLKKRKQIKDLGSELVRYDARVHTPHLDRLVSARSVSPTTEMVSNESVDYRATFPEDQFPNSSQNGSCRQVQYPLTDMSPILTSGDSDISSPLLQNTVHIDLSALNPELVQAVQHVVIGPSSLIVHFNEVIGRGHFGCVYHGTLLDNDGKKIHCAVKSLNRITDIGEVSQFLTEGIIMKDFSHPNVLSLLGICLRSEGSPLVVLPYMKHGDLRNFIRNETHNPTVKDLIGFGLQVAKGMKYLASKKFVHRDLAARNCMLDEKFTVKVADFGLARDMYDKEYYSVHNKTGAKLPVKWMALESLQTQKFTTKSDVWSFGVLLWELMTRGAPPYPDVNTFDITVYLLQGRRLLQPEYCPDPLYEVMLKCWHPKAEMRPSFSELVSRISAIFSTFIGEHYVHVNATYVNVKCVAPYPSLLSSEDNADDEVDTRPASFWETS

[6] = target: T3, Serine/threonine-protein kinase Nek6 (Homo sapiens, UniProt Q9HC98); test: Binding affinity to human NEK6 assessed as displacement of immobilized ligand by KINOMEscan scanMAX assay relative to control
T3 sequence (Q9HC98 whole entry): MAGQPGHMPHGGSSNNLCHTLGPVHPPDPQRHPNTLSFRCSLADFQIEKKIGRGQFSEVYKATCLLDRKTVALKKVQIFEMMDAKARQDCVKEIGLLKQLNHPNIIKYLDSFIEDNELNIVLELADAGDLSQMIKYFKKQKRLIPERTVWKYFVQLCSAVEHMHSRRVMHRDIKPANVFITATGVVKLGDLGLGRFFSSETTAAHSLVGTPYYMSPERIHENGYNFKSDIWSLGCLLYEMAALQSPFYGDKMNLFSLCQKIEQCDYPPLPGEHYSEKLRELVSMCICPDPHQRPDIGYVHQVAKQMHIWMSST

[7] = target: T4, Serine/threonine-protein kinase pim-2 (Homo sapiens, UniProt Q9P1W9); test: Binding affinity to human PIM2 assessed as displacement of immobilized ligand by KINOMEscan scanMAX assay relative to control
T4 sequence (Q9P1W9 whole entry): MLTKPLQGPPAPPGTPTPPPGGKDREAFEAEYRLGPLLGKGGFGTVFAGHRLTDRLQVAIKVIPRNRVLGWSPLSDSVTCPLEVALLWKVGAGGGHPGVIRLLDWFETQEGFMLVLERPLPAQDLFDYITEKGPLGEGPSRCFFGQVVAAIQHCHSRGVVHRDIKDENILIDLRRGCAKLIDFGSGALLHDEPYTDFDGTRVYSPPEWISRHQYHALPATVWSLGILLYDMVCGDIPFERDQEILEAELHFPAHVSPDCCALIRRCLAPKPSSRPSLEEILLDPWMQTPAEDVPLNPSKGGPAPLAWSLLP

[8] = target: T5, Wee1-like protein kinase (Homo sapiens, UniProt P30291); test: Binding affinity to human WEE1 assessed as displacement of immobilized ligand by KINOMEscan scanMAX assay relative to control
T5 sequence (P30291 whole entry): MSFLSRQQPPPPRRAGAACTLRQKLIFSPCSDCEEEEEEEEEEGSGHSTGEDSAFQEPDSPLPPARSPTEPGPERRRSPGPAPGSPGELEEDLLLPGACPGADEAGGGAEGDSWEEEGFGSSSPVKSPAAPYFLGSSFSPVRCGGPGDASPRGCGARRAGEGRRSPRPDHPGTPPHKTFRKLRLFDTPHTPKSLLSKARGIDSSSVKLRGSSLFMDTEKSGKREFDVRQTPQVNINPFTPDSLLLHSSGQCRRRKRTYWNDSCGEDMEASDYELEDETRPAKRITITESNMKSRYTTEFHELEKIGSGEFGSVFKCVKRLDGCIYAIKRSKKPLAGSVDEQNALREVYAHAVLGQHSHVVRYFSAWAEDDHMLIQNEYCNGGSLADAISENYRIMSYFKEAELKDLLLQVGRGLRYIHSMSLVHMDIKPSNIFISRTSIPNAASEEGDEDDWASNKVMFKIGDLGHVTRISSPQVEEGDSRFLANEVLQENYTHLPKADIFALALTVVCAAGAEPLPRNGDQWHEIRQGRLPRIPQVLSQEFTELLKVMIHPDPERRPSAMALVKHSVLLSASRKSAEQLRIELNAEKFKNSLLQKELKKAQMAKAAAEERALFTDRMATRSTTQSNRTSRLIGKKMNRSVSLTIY

[9] = target: T1, Serine/threonine-protein kinase 17B; test: Binding affinity to human STK17B assessed as displacement of immobilized ligand by KINOMEscan scanMAX assay relative to control
[10] = target: T6, Calcium/calmodulin-dependent protein kinase kinase 2 (Homo sapiens, UniProt Q96RR4); test: Binding affinity to human CAMKK2 assessed as displacement of immobilized ligand by KINOMEscan scanMAX assay relative to control
T6 sequence (Q96RR4 whole entry): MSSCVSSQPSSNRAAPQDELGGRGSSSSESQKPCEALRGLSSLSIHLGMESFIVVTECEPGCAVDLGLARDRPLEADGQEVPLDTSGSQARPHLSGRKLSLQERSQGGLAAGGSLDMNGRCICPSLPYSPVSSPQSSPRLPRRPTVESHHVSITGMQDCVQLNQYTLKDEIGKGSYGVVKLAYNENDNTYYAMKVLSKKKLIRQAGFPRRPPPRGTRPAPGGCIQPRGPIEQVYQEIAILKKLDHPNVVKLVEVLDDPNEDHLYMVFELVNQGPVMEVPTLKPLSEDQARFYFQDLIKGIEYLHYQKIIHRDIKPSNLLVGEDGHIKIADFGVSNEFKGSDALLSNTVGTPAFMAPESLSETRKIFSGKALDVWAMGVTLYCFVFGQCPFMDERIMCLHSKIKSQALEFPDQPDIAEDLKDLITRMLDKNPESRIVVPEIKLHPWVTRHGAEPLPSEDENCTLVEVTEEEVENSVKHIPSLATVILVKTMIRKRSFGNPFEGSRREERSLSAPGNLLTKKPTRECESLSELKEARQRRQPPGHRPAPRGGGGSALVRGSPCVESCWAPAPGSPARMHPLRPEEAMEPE

[11] = target: T7, Aurora kinase B (Homo sapiens, UniProt Q96GD4); test: Binding affinity to human AURKB assessed as displacement of immobilized ligand by KINOMEscan scanMAX assay relative to control
T7 sequence (Q96GD4 whole entry): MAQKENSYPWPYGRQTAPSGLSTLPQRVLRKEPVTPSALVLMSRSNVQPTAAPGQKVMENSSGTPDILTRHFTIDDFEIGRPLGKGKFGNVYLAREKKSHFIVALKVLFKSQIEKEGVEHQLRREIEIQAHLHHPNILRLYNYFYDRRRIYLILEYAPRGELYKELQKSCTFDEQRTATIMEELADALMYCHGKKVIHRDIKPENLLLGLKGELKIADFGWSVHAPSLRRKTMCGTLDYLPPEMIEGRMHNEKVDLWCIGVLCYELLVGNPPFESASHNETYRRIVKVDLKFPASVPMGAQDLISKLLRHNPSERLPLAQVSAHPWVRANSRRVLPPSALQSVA

[12] = target: T8, Calcium/calmodulin-dependent protein kinase kinase 1 (Homo sapiens, UniProt Q8N5S9); test: Binding affinity to human CAMKK1 assessed as displacement of immobilized ligand by KINOMEscan scanMAX assay relative to control
T8 sequence (Q8N5S9 whole entry): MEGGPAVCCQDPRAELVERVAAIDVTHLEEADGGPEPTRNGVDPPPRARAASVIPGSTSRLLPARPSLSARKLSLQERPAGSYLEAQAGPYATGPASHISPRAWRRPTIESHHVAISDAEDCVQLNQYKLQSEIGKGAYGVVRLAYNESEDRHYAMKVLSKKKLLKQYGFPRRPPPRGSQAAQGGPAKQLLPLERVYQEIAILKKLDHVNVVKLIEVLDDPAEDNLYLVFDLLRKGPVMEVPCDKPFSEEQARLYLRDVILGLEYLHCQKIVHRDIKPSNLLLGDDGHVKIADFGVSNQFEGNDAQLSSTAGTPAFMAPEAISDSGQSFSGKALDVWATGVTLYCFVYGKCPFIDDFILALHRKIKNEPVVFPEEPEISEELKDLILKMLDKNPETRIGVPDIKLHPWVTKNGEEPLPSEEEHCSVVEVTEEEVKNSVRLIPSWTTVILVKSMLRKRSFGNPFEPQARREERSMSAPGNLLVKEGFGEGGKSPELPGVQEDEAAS

[13] = target: T9, Serine/threonine-protein kinase 38-like (Homo sapiens, UniProt Q9Y2H1); test: Binding affinity to human STK38L assessed as displacement of immobilized ligand by KINOMEscan scanMAX assay relative to control
T9 sequence (Q9Y2H1 whole entry): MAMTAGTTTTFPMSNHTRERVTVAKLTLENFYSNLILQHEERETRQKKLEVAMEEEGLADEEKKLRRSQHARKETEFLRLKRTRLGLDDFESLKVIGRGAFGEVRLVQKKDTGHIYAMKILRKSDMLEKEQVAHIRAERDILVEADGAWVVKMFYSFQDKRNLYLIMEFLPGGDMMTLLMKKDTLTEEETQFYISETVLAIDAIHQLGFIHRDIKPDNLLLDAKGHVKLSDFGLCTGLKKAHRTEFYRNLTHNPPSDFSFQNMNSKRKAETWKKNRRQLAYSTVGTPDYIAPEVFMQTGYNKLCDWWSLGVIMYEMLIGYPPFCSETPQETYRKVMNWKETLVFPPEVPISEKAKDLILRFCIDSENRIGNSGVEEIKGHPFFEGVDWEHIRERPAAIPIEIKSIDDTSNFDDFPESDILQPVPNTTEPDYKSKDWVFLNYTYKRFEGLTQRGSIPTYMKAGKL

[14] = target: T10, Serine/threonine-protein kinase 17A (Homo sapiens, UniProt Q9UEE5); test: Binding affinity to human STK17A assessed as displacement of immobilized ligand by KINOMEscan scanMAX assay relative to control
T10 sequence (Q9UEE5 whole entry): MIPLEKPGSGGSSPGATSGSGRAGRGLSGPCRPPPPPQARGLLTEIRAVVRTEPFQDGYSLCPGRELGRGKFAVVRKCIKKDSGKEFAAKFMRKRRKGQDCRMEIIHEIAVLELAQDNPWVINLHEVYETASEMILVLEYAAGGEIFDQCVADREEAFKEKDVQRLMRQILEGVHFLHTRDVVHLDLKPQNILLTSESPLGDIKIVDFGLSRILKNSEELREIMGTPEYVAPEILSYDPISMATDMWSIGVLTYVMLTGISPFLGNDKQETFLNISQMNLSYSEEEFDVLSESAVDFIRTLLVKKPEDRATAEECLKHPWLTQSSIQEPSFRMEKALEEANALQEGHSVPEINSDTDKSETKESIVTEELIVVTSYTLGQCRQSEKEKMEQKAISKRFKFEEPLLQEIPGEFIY

[15] = target: T2, Hepatocyte growth factor receptor; test: Inhibition of human MET in presence of ATP at Km level
[16] = target: T3, Serine/threonine-protein kinase Nek6; test: Inhibition of human NEK6 in presence of ATP at Km level
[17] = target: T4, Serine/threonine-protein kinase pim-2; test: Inhibition of human PIM2 in presence of ATP at Km level
[18] = target: T5, Wee1-like protein kinase; test: Inhibition of human WEE1 in presence of ATP at Km level
[19] = target: T1, Serine/threonine-protein kinase 17B; test: Inhibition of human STK17B in presence of ATP at Km level
[20] = target: T6, Calcium/calmodulin-dependent protein kinase kinase 2; test: Inhibition of human CAMKK2 in presence of ATP at Km level
[21] = target: T7, Aurora kinase B; test: Inhibition of human AURKB in presence of ATP at Km level
[22] = target: T8, Calcium/calmodulin-dependent protein kinase kinase 1; test: Inhibition of human CAMKK1 in presence of ATP at Km level
[23] = target: T9, Serine/threonine-protein kinase 38-like; test: Inhibition of human STK38L in presence of ATP at Km level
[24] = target: T10, Serine/threonine-protein kinase 17A; test: Inhibition of human STK17A in presence of ATP at Km level
[25] = target: T6, Calcium/calmodulin-dependent protein kinase kinase 2; test: Binding affinity to human CAMKK2 incubated for 2 hrs by nano-BRET assay based cellular target engagement assay
[26] = target: T7, Aurora kinase B; test: Binding affinity to human AURKB incubated for 2 hrs by nano-BRET assay based cellular target engagement assay
[27] = target: T9, Serine/threonine-protein kinase 38-like; test: Binding affinity to human STK38L incubated for 2 hrs by nano-BRET assay based cellular target engagement assay
[28] = target: T10, Serine/threonine-protein kinase 17A; test: Binding affinity to human STK17A incubated for 2 hrs by nano-BRET assay based cellular target engagement assay
[29] = target: T1, Serine/threonine-protein kinase 17B

## O=C(O)CSc1ncnc2cc(-c3cc4ccccc4s3)sc12
[1]
  Kd: 0.0056 µM
[2]
  IC50: 0.034 µM
[3]
  remaining at 0.5 h, 100 µM: 63%
[4]
  solubility kinetic: 5 µg/mL (≈ 13.9 µM)
[5]
  Kd: > 10 µM
[6]
  Kd: > 10 µM
[7]
  Kd: 1.5 µM
[8]
  Kd: > 10 µM
[9]
  Kd: 0.0056 µM
[10]
  Kd: 0.021 µM
[11]
  Kd: 0.11 µM
[12]
  Kd: 0.049 µM
[13]
  Kd: > 10 µM
[14]
  Kd: 0.44 µM
[15]
  IC50: > 10 µM
[16]
  IC50: > 10 µM
[17]
  IC50: > 10 µM
[18]
  IC50: > 10 µM
[19]
  IC50: 0.034 µM
[20]
  IC50: > 10 µM
[21]
  IC50: 8.9 µM
[22]
  IC50: 5.2 µM
[23]
  IC50: > 10 µM
[24]
  IC50: 4.7 µM
[25]
  IC50: 2.4 µM
[26]
  IC50: > 10 µM
[27]
  IC50: > 10 µM
[28]
  IC50: > 10 µM
[29]
  IC50: 0.19 µM
